Biological target: T1, transthyretin tetramer (Homo sapiens, UniProt P02766)
T1 construct: from tissue; host or cells: human serum from three middle-aged and older persons
Assay: Stabilization Test 1 of Transthyretin Tetramer (serum, urea denaturation, electrophoresis and Western blotting)
Assay type: biochemical
Conditions: glabridin alone added at concentrations up to 50 μM
Protocol: Serums were obtained from blood taken from three middle-aged and older persons. […] The resulting mixtures were incubated at 25° C. for 30 minutes, and then denatured with urea. Using these samples, the transthyretins (the tetramers, the dimers, and the monomers) in the serum were quantitated by electrophoresis and Western blotting. The stabilization effect was investigated using the ratio of the monomers (monomer) to the total amounts of the transthyretins (total) (monomer/total) and the ratio of the tetramers (tetramer) to the total amounts of the transthyretins (total) (tetramer/total). The analysis results of the monomer/total ratio are shown in the left of FIG. 1. The analysis results of the tetramer/total ratio are shown in the right of FIG. 1.

[1] = serum of three middle-aged and older persons, 25° C. 30 minutes, then denatured with urea

Q: Which results are given for `CC1(C)C=Cc2c(ccc3c2OC[C@@H](c2ccc(O)cc2O)C3)O1` [glabridin]?
A: ratio of the monomers to the total amounts of the transthyretins (monomer/total) [1]: did not change; ratio of the tetramers to the total amounts of the transthyretins (tetramer/total) [1]: did not increase; stabilization effect for the transthyretin (serum): not observed
